Data: paper PMC4980666, “N-acylhydrazone inhibitors of influenza virus PA endonuclease with versatile metal binding modes” (Scientific Reports, 2016)
Where two headings read alike, the source gives them in different places.

Experiments:
[1] = tested on: influenza virus endonuclease; details: read-out: IC50 in enzymatic assays; cited from earlier work
[2] = molecular target: influenza virus vRNPs reconstituted in HEK293T cells (Influenza A virus, UniProt P03433); test: vRNP reconstitution assay in HEK293T cells; format: cell-based; details: for selectivity index (ratio of CC50 to EC50): vRNP assay, HEK293T
in vitro [3] = details: human, vRNP reconstitution assay Cytotoxicity CC50
in vitro [4] = details: dog
[5] = tested on: influenza A virus (strain A/PR/8/34); test: microbe, parasite or virus in culture; format: cell-based; details: for EC90 / EC99: Influenza A virus, 24 h; for EC90: read-out: Virus yield assay Antiviral activity EC90; for EC99: read-out: Virus yield assay Antiviral activity EC99
[6] = tested on: untransfected HEK293T cells; details: human, 24 h, 200 μM
[7] = MTS cell viability assay in untransfected HEK293T cells; details: human, vRNP reconstitution assay Cytotoxicity CC50, untransfected HEK293T cells
[8] = MTS cell viability assay in uninfected MDCK cells; details: dog
[9] = read-out: vRNP reconstitution assay Activity EC50
[10] = PR/8, 1-log10 reduction in virus titer, qPCR, MDCK cells
[11] = PR/8, 2-log10 reduction in virus titer, qPCR, MDCK cells

Compound | EC50 [2, 9] [µM] | CC50 at 24 h (in vitro [3]) [µM] | CC50 at 24 h (in vitro [4]) [µM] | EC90 [5, 10] [µM] | EC99 [5, 11] [µM] | SI (selectivity index, ratio between CC50 and EC90) ([5]; MDCK cells) | also measured
O=c1[nH]c(-c2ccc(-c3nnn[nH]3)cc2)ncc1O [2-(4-(1H-tetrazol-5-yl)phenyl)-5-hydroxypyrimidin-4(3H)-one] |  |  |  |  |  |  | IC50 [1]: 0.15 µM
NC(=O)N/N=C/c1cccc(O)c1O [Compound 1, N’-(2,3-dihydroxybenzylidene)-semicarbazide] | 107 | > 200 |  |  |  |  | 
COc1cccc(/C=N/NC(N)=O)c1O [Compound 2] | > 100 | > 200 |  |  |  |  | 
CCCCCCCC(=O)N/N=C/c1cccc(O)c1O [Compound 3] | 5.9 | < 50 | > 200 |  |  |  | selectivity index (ratio of CC50 to EC50) [2]: below 8
CCCCCCCC(=O)N/N=C/c1cccc(OC)c1O [Compound 4] | 6.3 | < 50 | > 200 |  |  |  | selectivity index (ratio of CC50 to EC50) [2]: below 8
O=C(N/N=C/c1cccc(O)c1O)c1ccccc1 [Compound 5] | 2.6 |  | ≥ 146 | > 25 | > 25 |  | selectivity index (ratio of CC50 to EC50) [2]: below 8
COc1cccc(/C=N/NC(=O)c2ccccc2)c1O [Compound 6] | 15 |  | > 200 | > 50 | > 50 |  | selectivity index (ratio of CC50 to EC50) [2]: below 8
O=C(N/N=C/c1cccc(O)c1O)c1ccccc1O [Compound 7] | 3.2 |  | > 200 | 100 | 172 | >2.0 | difference between EC50 in the vRNP assay and EC90 in the virus yield assay [2]: ≥ 8 fold; selectivity index (ratio of CC50 to EC50) [2]: below 8
COc1cccc(/C=N/NC(=O)c2ccccc2O)c1O [Compound 8] | 1.9 |  | > 200 | > 12.5 | > 12.5 |  | selectivity index (ratio of CC50 to EC50) [2]: below 8
O=C(N/N=C/c1cc(O)c(O)cc1O)c1ccccc1O [Compound 9] | 5.5 | > 200 | > 200 | 5.3 | 16 | >38 | 
O=C(N/N=C/c1c(O)cc(O)cc1O)c1ccccc1O [Compound 10] | 0.4 | 132 | 111 | 8.5 | 14 |  | difference between EC50 in the vRNP assay and EC90 in the virus yield assay [2]: ≥ 8 fold
O=C(N/N=C/c1cc(O)c(O)c(O)c1)c1ccccc1O [Compound 11] | 5.6 | > 200 | > 200 | 12 | 30 | >17 | 
COc1cc(C(=O)N/N=C/c2cc(O)ccc2O)cc(OC)c1OC [Compound 12] | 20 | 39 | > 200 | > 12.5 | > 12.5 |  | 
O=C(N/N=C/c1ccccc1)c1cc(O)c(O)c(O)c1 [Compound 13] | 6.3 | > 200 | > 200 | 34 | 71 | >5.9 | 
O=C(N/N=C/c1ccccc1O)c1cc(O)c(O)c(O)c1 [Compound 14] | 2.3 | > 200 | > 200 | 37 | 63 | >5.4 | difference between EC50 in the vRNP assay and EC90 in the virus yield assay [2]: ≥ 8 fold
O=C(N/N=C/c1cc(O)ccc1O)c1cc(O)c(O)c(O)c1 [Compound 15] | 14 | > 200 | ≥ 172 | 7.5 | 18 | ≥23 | 

Compound | EC50 [2, 9] [µM] | CC50 at 24 h (in vitro [3]) [µM] | CC50 at 24 h (in vitro [4]) [µM] | EC90 [5, 10] [µM] | EC99 [5, 11] [µM] | SI (selectivity index, ratio between CC50 and EC90) ([5]; MDCK cells) | also measured
COc1ccc(O)c(/C=N/NC(=O)c2cc(O)c(O)c(O)c2)c1 [Compound 16] | 5.2 | > 200 | > 200 | 28 | 67 | >7.1 | 
O=C(N/N=C/c1ccc(O)cc1O)c1cc(O)c(O)c(O)c1 [Compound 17] | 7.1 | > 200 | > 200 | 8.1 | 21 | >25 | 
O=C(N/N=C/c1cccc(O)c1O)c1cc(O)c(O)c(O)c1 [Compound 18] | 3.3 | > 200 | > 200 | 2.2 | 6.2 | >91 | cytotoxicity in the vRNP assay [6]: not cytotoxic at 200 μM
COc1cccc(/C=N/NC(=O)c2cc(O)c(O)c(O)c2)c1O [Compound 19] | 5.7 | > 200 | > 200 | 26 | 53 | >7.7 | cytotoxicity in the vRNP assay [6]: not cytotoxic at 200 μM
O=C(N/N=C/c1ccc(O)c(O)c1O)c1cc(O)c(O)c(O)c1 [Compound 20] | 2.2 | > 200 | > 200 | 11 | 35 | >18 | 
O=C(N/N=C/c1cc(O)c(O)cc1O)c1cc(O)c(O)c(O)c1 [Compound 21] | 2.5 | > 200 | > 200 | 3.6 | 8.3 | >56 | 
O=C(N/N=C/c1c(O)cc(O)cc1O)c1cc(O)c(O)c(O)c1 [Compound 22] | 0.42 | > 200 | > 200 | 3.4 | 7.4 | >59 | difference between EC50 in the vRNP assay and EC90 in the virus yield assay [2]: ≥ 8 fold
O=C(N/N=C/c1cc(O)c(O)c(O)c1)c1cc(O)c(O)c(O)c1 [Compound 23] | 3.1 | > 200 | > 200 | 3.5 | 11 | >57 | 
O=C(N/N=C/c1ccccn1)c1cc(O)c(O)c(O)c1 [Compound 24] | 25 | > 200 | > 200 | 26 | 58 | >7.7 | 
O=C(N/N=C/c1ccc[nH]1)c1cc(O)c(O)c(O)c1 [Compound 25] | 4.1 | > 200 | > 200 | 70 | 132 | >2.9 | difference between EC50 in the vRNP assay and EC90 in the virus yield assay [2]: ≥ 8 fold
O=C(O)c1ccc(-c2cccc(/C=N/NC(=O)c3cc(O)c(O)c(O)c3)c2)cc1 [Compound 26] | 5.5 | > 200 | > 200 | 13 | 36 | >15 | 
NC(=O)N/N=C/c1cc(O)c(O)c(O)c1 [Compound 27] | 21 | > 200 |  |  |  |  | 
NNC(=O)c1cc(O)c(O)c(O)c1 [Compound 28, 3,4,5-trihydroxybenzohydrazide] | 7.2 | > 200 | > 200 | 85 | 158 | >2.4 | difference between EC50 in the vRNP assay and EC90 in the virus yield assay [2]: ≥ 8 fold
O=C(O[C@@H]1Cc2c(O)cc(O)cc2O[C@@H]1c1cc(O)c(O)c(O)c1)c1cc(O)c(O)c(O)c1 [EGCG, epigallocatechin-3-gallate] |  |  |  |  |  |  | IC50 [1]: 1.9 µM
CC(C)/C=C1\N=C(CC(C)C)C(=O)N(O)C1=O [Flutimide] |  |  |  |  |  |  | IC50 [1]: 5.5 µM
NC(=O)c1ncn([C@@H]2O[C@H](CO)[C@@H](O)[C@H]2O)n1 [Ribavirin, reference compound] |  |  |  |  |  |  | CC50 at 24 h [7]: > 200 µM; CC50 at 24 h [8]: > 200 µM; EC50 [2]: 9.4 µM; EC90 ([5]; PR/8, MDCK): 8.5 µM; EC99 ([5]; PR/8, MDCK): 13 µM
